Source: patent US20140154337A1, “ANTIMICROBIAL AGENTS AND METHODS FOR USE THEREOF IN THE ABATEMENT OF FOOD BORNE PATHOGENIC ORGANISMS” (priority 2011, published 2014)

System: Escherichia coli ATCC strain number 8739
Assay: Enteral antimicrobial laboratory evaluation: inoculated tryptic soy agar plates sprayed with test mixture, enumerated after three days
Format: cell-based
Details: TSA plates sprayed, phosphoric acid added to pH approximately 3.2 simulating mammalian stomach
Description: In particular, testing was conducted as follows:
Six (6) identical conventional tryptic soy agar (“TSA”) plates were inoculated with Escherichia coli of the ATCC strain number 8739, which, as previously discussed, is a feces derived strain typical of that expected in the applications of the present invention.
The inoculated plates were then separated into three (3) groups of two (2) plates each, which groups were treated as follows: • a. […] Group III was sprayed with purified water only (in order to establish a negative control for the evaluation).

O=P(O)(O)O [phosphoric acid solution, phosphoric acid]
growth of Escherichia coli: only a minor reduction in the growth
